Key:
[1] = system: bacteria in the mesenteric lymph nodes; assay: Colony forming units in mesenteric lymph nodes (bacterial translocation); assay type: in vivo, mice; details: blood and BHI agar; aerobic, anaerobic, CO2; G6 oxycodone, G7 oxycodone/naloxone
Method: Following euthanasia, the abdomen was opened. The mesenteric root was presented and the mesenteric net unfolded. The mesenteric lymph nodes (MLNs) were removed and surrounding fat was removed. The MLNs were then weighed into sterilized tubes. Following weighing, the MLNs were frozen in liquid nitrogen. Following freezing, the MLNs were placed on dry ice prior to storage in a −70° C. freezer […].
MLNs were obtained as indicated above and the amount of bacteria in the MLNs was analyzed by determining colony forming units (CFUs) per g MLN in different media and under different conditions as indicated in FIG. 7. Contaminated samples were not taken into account (contaminated samples in the different groups: 1 in G1, 1 in G3, 2 in G6 and 3 in G7). The statistical analysis was performed using one way ANCOVA.

[2] = system: male C57BL/6 RAG1-/- knockout mice; assay: Charcoal test of intestinal motility (GI transit); assay type: in vivo; details: charcoal meal; oral gavage three times a day for 7 days and once on 8th day; Oxy 10 mg/kg, Oxy/Nal 10/5.0 mg/kg
Method: Male mice of the strain C57BL/6 RAG −/− (Taconic Model 4175-M, Taconic Laboratories) with an approximal weight at arrival of 20±7 g at an approximal age of 5 to 10 weeks were used in the present study.
The formulations were prepared on Day 0 and used for Day 1 to Day 8 dosing. Sterile water was used as vehicle. Each of the two dose formulations was transferred into eight individual sterile vials through sterilization filters, one designated for each day of dosing. The dose formulations were stored refrigerated and protected from light.
Animals were administered the dose by oral gavage three times a day (˜4 hours apart) for 7 days and once on the 8th day. Prior to the first dose administration of the day, the dose formulation vials designated for that day were removed from the refrigerator, briefly mixed, and allowed to come to room temperature, where the vials remained throughout the day. After the third dose on day 7, all animals fasted through euthanasia. The dose volume was based on the animal's body weight on Day 1. Dose volume was recorded. […]
Thirty minutes after charcoal delivery, animals were euthanized by an overdose of CO2. […] Its full length and the length of charcoal meal traveled were measured in centimeters. Intestinal transit was expressed as the percentage of intestine length containing the meal, i.e. 100×(pylorus to meal front/pylorus to caecum length). […]

[3] = Body weights over 7 days of dosing; assay type: in vivo, mice; details: 10 mg/kg oxycodone or 10 mg/kg oxycodone/5 mg/kg naloxone, oral gavage
Method: Animals were administered the dose by oral gavage three times a day (˜4 hours apart) for 7 days and once on the 8th day. Prior to the first dose administration of the day, the dose formulation vials designated for that day were removed from the refrigerator, briefly mixed, and allowed to come to room temperature, where the vials remained throughout the day. After the third dose on day 7, all animals fasted through euthanasia. The dose volume was based on the animal's body weight on Day 1. Dose volume was recorded.
Individual body weights were recorded prior to administration of the first dose on Day 1. The body weight determinations prior to Day 1 dose administration was used to determine the dose administered for all subsequent doses. Subsequent body weights were recorded daily after the 2nd dose of the day on Days 2 through 7.

[4] = system: bacteria of different phyla in the colon; assay: Analysis of the colon contents (bacterial phyla); details: phylum levels, FIG. 9; G1 untreated, G3 vehicle, G6, G7
Method: (§1) The small intestine, caecum, and colon were cut longitudinally. The contents of each were individually collected into separate containers with a small spatula or similar instrument, taking care to cause as little injury to the tissue as possible. The weight of the contents collected from each portion was recorded. The weights of the small intestine, caecum, and colon following removal of the contents were also recorded. Collected luminal contents samples were then frozen in liquid nitrogen. Luminal contents samples were then placed on dry ice before transfer to a −80° C. freezer.

[5] = system: bacteria of different phyla in the small intestine; assay: Analysis of the contents of the small intestine (bacterial phyla)
Method: as §1
The contents of the small intestine of the different groups were obtained as described above.

[6] = small intestine, n=7 for G6, n=4 for G7

COc1ccc2c3c1O[C@H]1C(=O)CC[C@@]4(O)[C@@H](C2)N(C)CC[C@]314 [oxycodone]
CFUs in MLNs (bacterial translocation into mesenteric lymph nodes) [1]: Increased CFUs | reduction of GI transit compared to vehicle [2]: 67% | average percentage body weight loss [3]: 4.17% | proteobacteria in colon compared to the remaining groups [4]: increase | bacterioides in small intestine, G6-group compared to G7-group ([5]; phylum levels, FIG. 8): clear decrease | proteobacteria in small intestine, G6-group compared to G7-group ([5]; phylum levels, FIG. 8): clear increase | mice with completely (dramatically) altered small intestine microbiome composition [5, 6]: 2/7 | mice with pathogenic populations such as proteobacteria in small intestine [5, 6]: 5/7

Reference: patent US10071089B2 (Euro-Celtique S.A., priority 2013, dated 2018)
